Measured values published in patent publication US10047084B2, “Imidazolone derivatives, pharmaceutical compositions and uses thereof” (BEIJING FORELANDPHARMA CO. LTD., priority 2013, dated 2018).
pEC50, pIC50: −log10 of the molar value.

Columns and labels:
mTOR kinase = mTOR kinase (Homo sapiens (Human), UniProt P42345); test: mTOR kinase activity assay (TR-FRET, GFP-4EBP1 substrate); format: biochemical; details: read-out: Enzyme (mTOR) IC50
Procedure: 1. mTOR Kinase Activity Assay: The inhibition of the mTOR protein kinase activity by the compounds was determined by the enzymatic activity assay in vitro. The detection kit supplied by Invitrogen was used to detect the inhibition of the activity of the mTOR […]. The principle of the assay was as follows: mTOR kinase, fluorescein-labeled substrate and ATP were mixed, and after the reaction, EDTA and terbium-labeled first antibody were added. During the chemical reaction process of the mTOR kinase, the antibody recognized the phosphorylated and fluorescein-labeled substrate, and then the “time-resolved fluorescence resonance energy transfer” (TR-FRET) effect was enhanced. TR-FRET effect was calculated as the ratio of signals from the acceptor fluorescein to signals from the donor terbium. The amount of the antibody bound to the tracer was directly proportional to the amount of the phosphorylated substrate after the reaction. In this way, the kinase activity can be detected. In this assay, the substrate of the mTOR kinase was green fluorescent protein-coupled 4E binding protein 1 (GFP-4EBP1).
1.1 Materials and Instruments:
4-Hydroxyethylpiperazine ethanesulfonic acid (HEPES, Sigma, Cat# SH3375), ethylene glycol-bis-(2-aminoethylether)-tetraacetic acid (EGTA, Sigma, Cat# E3889), manganese chloride (MnCl2, Sigma, Cat# M1787), Tween-20 (Tween-20, Amresco), 1,4-dithiothreitol (DTT, Merck, CB233155),

PC-3 = test: CTG cell survival assay, PC-3; format: cell-based; details: Homo sapiens, PC-3 cells
Text: (§1) 2. CTG Cell Survival Assay:
(§2) ATP is necessarily produced during the metabolic activities of viable cells, and there is a linear relationship between the content of ATP and the number of viable cells. Cell viability assay by CTG chemiluminescence is a general method for detecting the number of viable cells in the culture cells based on this principle. The addition of the CellTiter-Glo (CTG) reagent may induce cell lysis and produce chemiluminescent signals directly proportional to the amount of ATP in the well-plate, and thereby the cell proliferation activity in the well-plate can be measured by the reading values from the chemiluminescence.
(§3) 2.1 Experimental Materials and Instruments:
(§4) 2.4 Experimental Procedure: • 1.4.1 Cell Thawing: Cryogenic vials were removed from the liquid nitrogen container, directly immersed in a water bath at 37° C., and shaked from time to time to thaw. The cryogenic vials were removed from the water bath at 37° C., and transferred to the biosafe cabinet. Their lids were opened, and the cell suspensions were aspirated with pipettes, added to centrifuge tubes, and then added with more than 10 volumes of culture solution, mixed well; centrifuged for 5 min at 1000 rpm; the supernatant was discarded, and medium containing cell growth was added to resuspend cells. All cell suspensions were seeded to the T25 culture flasks and static cultured in an incubator at 37° C.; the culture solution were changed once on the next day, and continued to be cultured. • 2.4.2 Cell Passaging: After cells were grown to logarithmic phase and were 80%-90% confluent, cells were removed and placed in the biosafe cabinet, the old culture solution was discarded, and the cells were wetted and washed with PBS once or twice. An appropriate amount of 0.25% Trypsin-EDTA solution was added to the culture flasks. The flasks were placed in the carbon dioxide incubator at 37° C. for 2-5 min. An appropriate amount of cell growth medium containing 10% PBS was added to terminate the digestion, lightly swished, and transferred to the centrifuge tubes and centrifuged for 5 min at 1000 rpm. The cells were prepare (into cell suspensions for passaging and experimental use. • 2.4.3 Cell Plating • 2.4.3.1 A cell suspension was prepared: After cells were grown to logarithmic phase and were 80%-90% confluent, the cells were removed to the biosafe cabinet, and the old culture solution was discarded, then the cells were wetted and washed with PBS once or twice. An appropriate amount of 0.25% Trypsin-EDTA solution was added to the culture flask. The flask was placed in a carbon dioxide incubator at 37° C. for 2-5 min. An appropriate amount of the cell growth medium containing 10% PBS was added to terminate digestion, and was lightly swished. The solution was transferred to a centrifuge tube, centrifuged for 5 min at 1000 rpm, and counted. […] Secondly, 20 uM of the compound to be tested was diluted with the cell growth medium containing 0.2% DMSO in 3-fold dilution to obtain 9 concentrations, and there were 10 concentration gradients in total. • 2.4.4.3 Addition of the compounds to be tested: the prepared gradient dilution solutions of compounds to be tested were taken and added to the cell culture plate at 100 ul/well; at this point, the maximum concentration of compounds to be tested was 10 uM, and the concentration of DMSO was 0.1%.

MV-4-11 = test: CTG cell survival assay, MV-4-11; format: cell-based; details: Homo sapiens, MV4-11, MV-4-11 cells
Text: as §1, §2, §3
2.1.1 Experimental Materials: compounds to be tested, cell basal culture medium, RPMI Medium 1640 (Invitrogen, Cat#11875-093), fetal calf serum (FBS): Hyclone FETAL BOVINE SERUM DEFINED (Invitrogen, Cat#SH30070.03), antibiotics: Penicilin Streptomycin (Invitrogen, Cat#15140-122), phosphate buffer (Corning Cellgro, Cat#R21-040-CV), cell digestive solution: 0.25% Trypsin-EDTA (Invitrogen, Cat#25200-056), CTG detection kit: Promega, Cat#G7571, flat-bottom 96-well black bottom plate: NUNC, Cat#165305, T25 culture flask: NUNC, Cat#156367, T75 culture flask: NUNC, Cat#156439
2.2 Experimental Instruments: Carbon Dioxide Incubator, SANYO-MCO-20AIC, Biosafe Cabinet: BSC-1360-LIIA2, Table-Top High-Speed Refrigerated Centrifuge: SorvallST 16R, Microplate Rapid Oscillator: QB-9001, M3 Reader: SpectraMax M3, Microscope: OLYMPUS-CKX41/CKX31.
2.3 Preparation of Solutions and Reagents: Formulation of cell growth medium: RPMI Medium 1640+10% FBS+antibiotics, others: trypsin digestive solution, phosphate buffer (PBS), DMSO, CTG detection kit.
2.4 Experimental Procedure: • 1.4.1 Cell Thawing: Cryogenic vials were removed from the liquid nitrogen container, directly immersed in a water bath at 37° C., and shaked from time to time to thaw. The cryogenic vials were removed from the water bath at 37° C., and transferred to the biosafe cabinet. Their lids were opened, and the cell suspensions were aspirated with pipettes, added to centrifuge tubes, and then added with more than 10 volumes of culture solution, mixed well; centrifuged for 5 min at 1000 rpm; the supernatant was discarded, and medium containing cell growth was added to resuspend cells. All cell suspensions were seeded to the T25 culture flasks and static cultured in an incubator at 37° C.; the culture solution were changed once on the next day, and continued to be cultured. • 2.4.2 Cell Passaging: After cells were grown to logarithmic phase and were 80%-90% confluent, cells were removed and placed in the biosafe cabinet, the old culture solution was discarded, and the cells were wetted and washed with PBS once or twice. An appropriate amount of 0.25% Trypsin-EDTA solution was added to the culture flasks. The flasks were placed in the carbon dioxide incubator at 37° C. for 2-5 min. An appropriate amount of cell growth medium containing 10% PBS was added to terminate the digestion, lightly swished, and transferred to the centrifuge tubes and centrifuged for 5 min at 1000 rpm. The cells were prepare (into cell suspensions for passaging and experimental use. • 2.4.3 Cell Plating • 2.4.3.1 A cell suspension was prepared: After cells were grown to logarithmic phase and were 80%-90% confluent, the cells were removed to the biosafe cabinet, and the old culture solution was discarded, then the cells were wetted and washed with PBS once or twice. An appropriate amount of 0.25% Trypsin-EDTA solution was added to the culture flask. The flask was placed in a carbon dioxide incubator at 37° C. for 2-5 min. An appropriate amount of the cell growth medium containing 10% PBS was added to terminate digestion, and was lightly swished. The solution was transferred to a centrifuge tube, centrifuged for 5 min at 1000 rpm, and counted. […]

SK-BR3/BT474 = test: CTG cell survival assay, SK-BR3/BT474; format: cell-based; details: SK-BR3/BT474 cells
Text: as §1, §2, §3, §4

Chain of mTOR kinase (P42345 1360-2549): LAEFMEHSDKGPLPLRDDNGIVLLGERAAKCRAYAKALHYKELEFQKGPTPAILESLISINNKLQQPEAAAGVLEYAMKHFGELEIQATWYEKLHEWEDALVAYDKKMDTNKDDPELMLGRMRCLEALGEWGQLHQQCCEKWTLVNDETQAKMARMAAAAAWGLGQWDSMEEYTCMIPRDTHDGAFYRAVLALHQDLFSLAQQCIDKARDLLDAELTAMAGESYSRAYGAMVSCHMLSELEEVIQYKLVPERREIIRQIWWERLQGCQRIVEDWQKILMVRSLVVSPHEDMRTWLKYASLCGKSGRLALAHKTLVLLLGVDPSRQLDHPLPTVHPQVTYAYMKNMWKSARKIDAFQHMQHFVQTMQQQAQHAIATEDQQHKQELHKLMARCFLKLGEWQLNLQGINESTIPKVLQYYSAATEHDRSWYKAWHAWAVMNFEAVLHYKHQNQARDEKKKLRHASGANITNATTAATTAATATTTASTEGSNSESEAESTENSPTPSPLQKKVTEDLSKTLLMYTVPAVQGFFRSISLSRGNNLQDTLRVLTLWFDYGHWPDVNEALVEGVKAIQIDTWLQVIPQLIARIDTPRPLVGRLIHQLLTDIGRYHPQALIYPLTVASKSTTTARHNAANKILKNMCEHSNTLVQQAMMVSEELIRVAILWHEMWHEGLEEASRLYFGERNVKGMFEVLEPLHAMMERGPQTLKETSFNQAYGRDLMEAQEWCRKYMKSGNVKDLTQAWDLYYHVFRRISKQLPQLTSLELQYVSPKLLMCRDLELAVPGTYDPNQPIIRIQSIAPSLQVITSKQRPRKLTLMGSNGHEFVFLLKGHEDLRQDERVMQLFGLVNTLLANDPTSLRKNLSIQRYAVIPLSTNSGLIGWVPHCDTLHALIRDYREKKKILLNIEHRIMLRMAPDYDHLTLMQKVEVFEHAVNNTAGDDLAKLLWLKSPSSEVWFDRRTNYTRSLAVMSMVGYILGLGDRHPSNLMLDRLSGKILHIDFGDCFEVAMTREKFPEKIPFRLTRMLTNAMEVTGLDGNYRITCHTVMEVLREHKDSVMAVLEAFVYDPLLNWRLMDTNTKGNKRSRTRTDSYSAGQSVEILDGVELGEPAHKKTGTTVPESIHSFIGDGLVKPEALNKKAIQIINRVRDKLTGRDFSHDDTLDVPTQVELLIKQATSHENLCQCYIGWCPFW

| Compound | pIC50 (mTOR kinase) | pEC50 (PC-3) | pEC50 (MV-4-11) | pEC50 (SK-BR3/BT474) |
| --- | --- | --- | --- | --- |
| Cn1cc(-c2ccc(-c3ccc4ncc5c(c4c3)n(C3CCCN(C(=O)c4nc[nH]n4)C3)c(=O)n5C)cn2)cn1 (stereo not drawn) [Example 2, 1-(1-(1H-1,2,4-triazole-3-carbonyl)piperidin-3-yl)-3-methyl-8-(6-(1-methyl-1H-pyrazol-4-yl)pyridin-3-yl)-1H-imidazo[4,5-c]quinolin-2(3H)-one] | 6.00 to 7.00 |  |  |  |
| Cn1cc(-c2ccc(-c3ccc4ncc5c(c4c3)n(C3CCN(C(=O)C(F)(F)F)C3)c(=O)n5C)cn2)cn1 (stereo not drawn) [Example 16, 3-methyl-8-(6-(1-methyl-1H-pyrazol-4-yl)pyridin-3-yl)-1-(1-(2,2,2-trifluoroacetyl)pyrrolidin-3-yl)-1H-imidazo[4,5-c]quinolin-2(3H)-one] | 6.00 to 7.00 | > 6.00 |  |  |
| Cn1ccc(-c2ccc(-c3ccc4ncc5c(c4c3)n([C@H]3CCN(S(C)(=O)=O)C3)c(=O)n5C)cn2)n1 [Example 47, (S)-3-methyl-8-(6-(1-methyl-1H-pyrazol-3-yl)pyridin-3-yl)-1-(1-(methanesulfonyl)pyrrolidin-3-yl)-1H-imidazo[4,5-c]quinolin-2(3H)-one] |  | 7.52 | > 7.00 | 7.40 |
| Cn1cc(-c2ccc(-c3ccc4ncc5c(c4n3)n([C@@H]3CCCN(S(C)(=O)=O)C3)c(=O)n5C)cn2)cn1 [Example 49, (R)-3-methyl-8-(6-(1-methyl-1H-pyrazol-4-yl)pyridin-3-yl)-1-(1-(methanesulfonyl)piperidin-3-yl)-1H-imidazo[4,5-c][1,5]naphthyridin-2(3H)-one] |  | 8.00 | > 7.70 | 7.70 |
| Cn1cc(-c2ccc(-c3ccc4ncc5c(c4n3)n([C@H]3CCN(S(C)(=O)=O)C3)c(=O)n5C)cn2)nn1 [Example 50, (S)-3-methyl-8-(6-(1-methyl-1H-1,2,3-triazol-4-yl)pyridin-3-yl)-1-(1-(methanesulfonyl)pyrrolidin-3-yl)-1H-imidazo[4,5-c][1,5]naphthyridin-2(3H)-one] |  | 7.70 | > 7.52 | 7.52 |
| Cn1cc(-c2ccc(-c3ccc4ncc5c(c4c3)n([C@H]3CC[C@@H](O)CC3)c(=O)n5C)cn2)nn1 [Example 51, 1-((1s,4s)-4-hydroxycyclohexyl)-3-methyl-8-(6-(1-methyl-1H-1,2,3-triazol-4-yl)pyridin-3-yl)-1H-imidazo[4,5-c]quinolin-2(3H)-one] |  | > 8.00 | > 7.70 | 8.00 |
| CCNC(=O)N1CCC[C@@H](n2c(=O)n(C)c3cnc4ccc(-c5ccc(-c6cnn(C)c6)nc5)cc4c32)C1 [Example 55, (R)—N-ethyl-3-(3-methyl-8-(6-(1-methyl-1H-pyrazol-4-yl)pyridin-3-yl)-2-oxo-2,3-dihydro-1H-imidazo[4,5-c]quinolin-1-yl)piperidine-1-formamide] |  | 6.52 | 6.10 | 6.52 |
| Cn1cc(-c2ccc(-c3ccc4ncc5c(c4c3)n([C@@H]3CCCN(S(=O)(=O)C(F)(F)F)C3)c(=O)n5C)cn2)cn1 [Example 56, (R)-3-methyl-8-(6-(1-methyl-1H-pyrazol-4-yl)pyridin-3-yl)-1-(1-((trifluoromethyl)sulfonyl)piperidin-3-yl)-1H-imidazo[4,5-c]quinolin-2(3H)-one] |  | > 7.52 | 7.22 | 7.15 |
| Cn1cc(-c2ccc(-c3ccc4ncc5c(c4c3)n(C3CCN(S(C)(=O)=O)CC3)c(=O)n5C)cn2)cn1 [Example 59, 3-methyl-8-(6-(1-methyl-1H-pyrazol-4-yl)pyridin-3-yl)-1-(1-(methanesulfonyl)piperidin-4-yl)-1H-imidazo[4,5-c]quinolin-2(3H)-one] |  | 7.52 | 7.00 | > 7.00 |
| Cn1cc(-c2ccc(-c3ccc4ncc5c(c4c3)n(C3CCN(S(C)(=O)=O)CC3)c(=O)n5C)cn2)nn1 [Example 60, 3-methyl-8-(6-(1-methyl-1H-1,2,3-triazol-4-yl)pyridin-3-yl)-1-(1-(methanesulfonyl)piperidin-4-yl)-1H-imidazo[4,5-c]quinolin-2(3H)-one] |  | > 7.52 | > 7.00 | 7.40 |
| Cn1cc(-c2ccc(-c3ccc4ncc5c(c4c3)n(C3CC4CCC(C3)N4S(C)(=O)=O)c(=O)n5C)cn2)nn1 (stereo not drawn) [Example 61, 3-methyl-8-(6-(1-methyl-1H-1,2,3-triazol-4-yl)pyridin-3-yl)-1-(8-(methanesulfonyl)-8-azabicyclo[3.2.1]octan-3-yl)-1H-imidazo[4,5-c]quinolin-2(3H)-one] |  | > 8.00 | > 7.70 | > 8.00 |
| Cn1cc(-c2ccc(-c3ccc4ncc5c(c4c3)n(C3CC4CCC(C3)N4S(C)(=O)=O)c(=O)n5C)cn2)cn1 (stereo not drawn) [Example 62, 3-methyl-8-(6-(1-methyl-1H-pyrazol-4-yl)pyridin-3-yl)-1-(8-(methanesulfonyl)-8-azabicyclo[3.2.1]octan-3-yl)-1H-imidazo[4,5-c]quinolin-2(3H)-one] |  | > 8.00 | > 7.70 | > 7.70 |
